Test results as given in patent US10214544B2, “Imidazopyridazine and imidazothiadiazole compounds” (Universite de Montreal, priority 2015, dated 2019).
No end group written: not given here.

Molecular target: PAR1 (Homo sapiens (Human), UniProt P25116)
Test: FLIPR assay, PAR1 agonist peptide response in PAR1/PAR4-expressing HEK293 cells
Type: cell-based
Settings: routine test of agonist response, FLIPR assay of Example A
Excerpt: HEK293 cells stably expressing PAR4 were generated by a standard method of transfection of human PAR4 (F2R23) cDNA expression vector and selected based on PAR4 protein expression or mRNA expression. […] These cells also express endogenous PAR1 and can elicit calcium signal upon stimulation with PAR1 agonist peptide. Therefore, the same cells were also used to determine selectivity against PAR1 and agonist activity for both receptors. Cells from HEK293 PAR4 Clone 1.2A (BMS Arctic ID 383940) were propagated and used for calcium mobilization studies.
FLIPR-based calcium mobilization assay in HEK293 cells was used to measure PAR4 antagonism, agonism, and selectivity against PAR1. The activity of the PAR4 antagonists of the present invention were tested in PAR4 expressing cells by monitoring H-Ala-Phe(4-F)-[…]NH2-induced intracellular calcium mobilization. Counter screens for agonist activity and PAR1 antagonist activity were also performed. Briefly, PAR1/PAR4-expressing HEK293 cells were grown in DMEM (Life Technology, Grand Island, N.Y.) containing 10% heat-inactivated FBS, 1% Penicillin-Streptomycin, 10 μg/mL blasticidin, and 100 μg/mL Zeocin at 37° C. with 5% CO2. […] Changes in fluorescence intensity were measured using a Functional Drug Screening System (FDSS, Hamamatsu, Japan) to determine agonist activities. […]

PAR1, sequence (P25116 22-425): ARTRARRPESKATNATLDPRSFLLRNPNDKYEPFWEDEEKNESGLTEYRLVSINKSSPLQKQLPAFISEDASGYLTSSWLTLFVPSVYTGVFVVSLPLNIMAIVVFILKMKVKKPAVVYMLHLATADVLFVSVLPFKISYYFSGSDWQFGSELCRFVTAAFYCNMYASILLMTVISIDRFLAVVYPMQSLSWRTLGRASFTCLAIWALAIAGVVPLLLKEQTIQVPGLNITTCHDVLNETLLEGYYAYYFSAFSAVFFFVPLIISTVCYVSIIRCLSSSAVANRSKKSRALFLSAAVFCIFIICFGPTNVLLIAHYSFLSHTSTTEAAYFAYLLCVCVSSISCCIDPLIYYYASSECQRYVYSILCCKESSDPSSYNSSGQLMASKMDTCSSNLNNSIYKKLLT

EC50: ~2000 nM
Substance: SFFLRR [SFFLRR]
